{
  "source": "paper PMC6941952",
  "about": "“A homogeneous bioluminescent immunoassay to probe cellular signaling pathway regulation” (Communications Biology, 2020)",
  "system": "STAT3 Phospho-Tyr705",
  "experiment": "NanoBiT pSTAT3 cell-based immunoassay in A431 cells",
  "design": "species or system human",
  "settings": "for P-STAT3 (% compared to no inhibitor) Average / P-STAT3 (% compared to no inhibitor): IL-6 10 ng/ml; for P-STAT3 (% compared to no inhibitor): replicate",
  "procedure": "Prior to NanoBiT Cell-Based Immunoassay, 50,000 cells were seeded in 160 µl of complete growth media per well of a 96-well plate and incubated overnight. […] If necessary, the cell culture media were replaced with serum-free media after the cells were stably adherent on the plate and incubated overnight. To treat cells with activators or inhibitors, medium was changed to 30 µl of medium containing inhibitors. If activation of a specific pathway is needed, the cells were stimulated with 10 µl of medium containing activators. To lyse the cells, 10 µl of lysis buffer containing 0.1% digitonin diluted in 1X immunoassay buffer with protease and phosphatase inhibitors was added and the plates were mixed vigorously for 20 min. Then, 50 µl of an antibody mix containing two primary antibodies against the target protein and NanoBiT detecting antibodies (0.3 µl each per well), diluted in 1X immunoassay buffer was added to the lysates. The plates were incubated at 23 °C for 90 min, followed by the addition of 25 µl of Nano-Glo® reagent consisting of Nano-Glo® Luciferase Assay Substrate mixed with 1X immunoassay buffer. Luminescence was measured using a plate-reading luminometer.\nSingle dose or dose response inhibitor treatments were performed prior to activation of the pathways as follows. For IκBα, the cells were treated in 30 µl medium with IKK16 or MG132 for 60 min before the addition of 10 µl of DMEM containing appropriate concentration of TNFα. To measure phosphorylation of AKT or STAT3, the corresponding NanoBiT immunoassays were developed with MCF-7 or A431 cells, respectively, according the same scheme used to develop the IκBα assay using the primary antibodies for AKT and STAT3 described in the reagents section. […] Treatment with LY294002 was performed in 30 µl medium and cells were incubated for 60 min before the addition of 1 µM Insulin. To measure STAT3 phosphorylation, A431 cells were incubated overnight in DMEM medium without serum. […] After addition of the stimulators, the cells were incubated for additional times as follows. IκBα phosphorylation and degradation analyses required both time courses and single time points as described in figures. […] The NanoBiT immunoassay protocol was followed as described above.\nAll 96-well assay plates were read using a GloMax® 96 Microplate Luminometer from Promega. The instrument was set to 0.5 s integration time. In order to obtain net change of signal, the reagent background values (signal from the well containing all reagent except primary antibodies) were subtracted from the sample values. To plot and analyze the data, Microsoft Excel and GraphPad Prism® Software were used. IC50 values were determined by using a nonlinear regression fit to a sigmoidal dose response (variable slope).",
  "note": "Values joined by “and” are separate entries in the source; they are usually repeats but may differ in a detail not shown here. Equal entries are not always repeated.",
  "data": [
    {"smiles": "N#CC[C@H](C1CCCC1)n1cc(-c2ncnc3[nH]ccc23)cn1", "note": "[Ruxolitinib]", "values": [
      {"measurement": "IL-6-induced increase in STAT3 phosphorylation", "setting": "A431 cells, 1 µM 1 h, IL-6 10 ng per ml 30 min", "result": "suppressed"},
      {"measurement": "P-STAT3 (% compared to no inhibitor) Average", "setting": "inhibitor 0.0190735 nM", "result": 95.1, "unit": "%"},
      {"measurement": "P-STAT3 (% compared to no inhibitor) Average", "setting": "inhibitor 0.038147 nM", "result": 97.5, "unit": "%"},
      {"measurement": "P-STAT3 (% compared to no inhibitor) Average", "setting": "inhibitor 0.0762939 nM", "result": 97.0, "unit": "%"},
      {"measurement": "P-STAT3 (% compared to no inhibitor) Average", "setting": "inhibitor 0.152588 nM", "result": 107.8, "unit": "%"},
      {"measurement": "P-STAT3 (% compared to no inhibitor) Average", "setting": "inhibitor 0.305176 nM", "result": 102.4, "unit": "%"},
      {"measurement": "P-STAT3 (% compared to no inhibitor) Average", "setting": "inhibitor 0.610352 nM", "result": 97.6, "unit": "%"},
      {"measurement": "P-STAT3 (% compared to no inhibitor) Average", "setting": "inhibitor 1.2207 nM", "result": 97.9, "unit": "%"},
      {"measurement": "P-STAT3 (% compared to no inhibitor) Average", "setting": "inhibitor 2.44141 nM", "result": 96.4, "unit": "%"},
      {"measurement": "P-STAT3 (% compared to no inhibitor) Average", "setting": "inhibitor 4.88281 nM", "result": 89.5, "unit": "%"},
      {"measurement": "P-STAT3 (% compared to no inhibitor) Average", "setting": "inhibitor 9.76562 nM", "result": 75.7, "unit": "%"},
      {"measurement": "P-STAT3 (% compared to no inhibitor) Average", "setting": "inhibitor 19.5312 nM", "result": 80.7, "unit": "%"},
      {"measurement": "P-STAT3 (% compared to no inhibitor) Average", "setting": "inhibitor 39.0625 nM", "result": 62.0, "unit": "%"},
      {"measurement": "P-STAT3 (% compared to no inhibitor) Average", "setting": "inhibitor 78.125 nM", "result": 39.8, "unit": "%"},
      {"measurement": "P-STAT3 (% compared to no inhibitor) Average", "setting": "inhibitor 156.25 nM", "result": 26.0, "unit": "%"},
      {"measurement": "P-STAT3 (% compared to no inhibitor) Average", "setting": "inhibitor 312.5 nM", "result": 16.9, "unit": "%"},
      {"measurement": "P-STAT3 (% compared to no inhibitor) Average", "setting": "inhibitor 625 nM", "result": 16.7, "unit": "%"},
      {"measurement": "P-STAT3 (% compared to no inhibitor) Average", "setting": "inhibitor 2500 nM", "result": 13.8, "unit": "%"},
      {"measurement": "P-STAT3 (% compared to no inhibitor) Average", "setting": "inhibitor 5000 nM", "result": 15.3, "unit": "%"},
      {"measurement": "P-STAT3 (% compared to no inhibitor) Average", "setting": "inhibitor 10000 nM", "result": 10.3, "unit": "%"},
      {"measurement": "P-STAT3 (% compared to no inhibitor) Average", "setting": "inhibitor […]", "result": 12.9, "unit": "%"},
      {"measurement": "P-STAT3 (% compared to no inhibitor)", "setting": "inhibitor 0.0190735 nM", "result": "96.2% and 96.8% and 92.2%"},
      {"measurement": "P-STAT3 (% compared to no inhibitor)", "setting": "inhibitor 0.038147 nM", "result": "95.4% and 106.7% and 90.5%"},
      {"measurement": "P-STAT3 (% compared to no inhibitor)", "setting": "inhibitor 0.0762939 nM", "result": "96.2% and 100.5% and 94.3%"},
      {"measurement": "P-STAT3 (% compared to no inhibitor)", "setting": "inhibitor 0.152588 nM", "result": "95.8% and 119.8% and 107.8%"},
      {"measurement": "P-STAT3 (% compared to no inhibitor)", "setting": "inhibitor 0.305176 nM", "result": "98.2% and 103.8% and 105.3%"},
      {"measurement": "P-STAT3 (% compared to no inhibitor)", "setting": "inhibitor 0.610352 nM", "result": "90.4% and 95.8% and 106.7%"},
      {"measurement": "P-STAT3 (% compared to no inhibitor)", "setting": "inhibitor 1.2207 nM", "result": "97.3% and 105.4% and 90.9%"},
      {"measurement": "P-STAT3 (% compared to no inhibitor)", "setting": "inhibitor 2.44141 nM", "result": "104.8% and 99.5% and 84.9%"},
      {"measurement": "P-STAT3 (% compared to no inhibitor)", "setting": "inhibitor 4.88281 nM", "result": "81.2% and 88.5% and 98.7%"},
      {"measurement": "P-STAT3 (% compared to no inhibitor)", "setting": "inhibitor 9.76562 nM", "result": "52.6% and 91.9% and 82.5%"},
      {"measurement": "P-STAT3 (% compared to no inhibitor)", "setting": "inhibitor 19.5312 nM", "result": "89.5% and 78.3% and 74.3%"},
      {"measurement": "P-STAT3 (% compared to no inhibitor)", "setting": "inhibitor 39.0625 nM", "result": "59.3% and 71.3% and 55.5%"},
      {"measurement": "P-STAT3 (% compared to no inhibitor)", "setting": "inhibitor 78.125 nM", "result": "39.9% and 42.8% and 36.6%"},
      {"measurement": "P-STAT3 (% compared to no inhibitor)", "setting": "inhibitor 156.25 nM", "result": "30.4% and 24.5% and 23.1%"},
      {"measurement": "P-STAT3 (% compared to no inhibitor)", "setting": "inhibitor 312.5 nM", "result": "16.4% and 18.5% and 15.8%"},
      {"measurement": "P-STAT3 (% compared to no inhibitor)", "setting": "inhibitor 625 nM", "result": "19.9% and 15.7% and 14.5%"},
      {"measurement": "P-STAT3 (% compared to no inhibitor)", "setting": "inhibitor 2500 nM", "result": "12.6% and 13.9% and 14.8%"},
      {"measurement": "P-STAT3 (% compared to no inhibitor)", "setting": "inhibitor 5000 nM", "result": "13.4% and 17.3% and 15.2%"},
      {"measurement": "P-STAT3 (% compared to no inhibitor)", "setting": "inhibitor 10000 nM", "result": "6.2% and 9.4% and 15.3%"}
    ]}
  ]
}
